Source: US20200345725A1, “Methods and Compositions for Treating Cancer” (Omeros Corporation, priority 2019, published 2020)

What was measured:
mouse splenocytes = assay: IL-2 levels in supernatants of cultured mouse splenocytes (WT or GPR174-KO) stimulated with anti-CD3 and anti-CD28, MSD platform; format: cell-based; settings: 2 days
Experimental: To make single cell suspensions from mouse splenocytes, spleens were cut into 1-2 mm^3 pieces with a razor blade and incubated at 37° C. with 10 μg/mL DNase and 1 mg/mL Collagenase D with agitation for 90 min. Spleen fragments and cells were then pressed through a nylon screen, and the resulting cell suspension was washed. In 96-well flat-bottom plates, splenocytes were cultured in quadruplicate with the following conditions for 2 days, after which supernatants were tested for cytokine levels with the MSD platform.
Anti-CD3 (clone 2C11; 0.1 μg/mL)
GPR174 inhibitor (compound 10, 1 μM or 0.3 μM, or DMSO vehicle control)
GPR174 inhibitor (compound 6, 0.3 μM, or DMSO vehicle control)
Adenosine receptor agonist (NECA, 0.1 μM)

human PBMC = assay: IL-2 in supernatants of human PBMC stimulated with anti-CD3 and anti-CD28, ELISA; format: cell-based; settings: human PBMC donor 8, 24 hours post-stimulation; compound 10 1 μM, ZM-241385 0.1 μM, APCP 10 μM; FIG. 71
Experimental: Human PBMCs, obtained from a human volunteer donor (donor 8), were dispensed in X-vivo15 media (Lonza) supplemented with Glutamax, penicillin and streptomycin, at density of 1×10^6 cells/well in a 96-well flat-bottom plate and were cultured in quadruplicate for 3 hours in the presence of:
GPR174 inhibitory compound 10 (1 μM);
CD73 inhibitory compound, adenosine 5′-(a,p-methylene)diphosphate sodium salt (APCP, Tocris, 10 μM);
Combinations of the above agents;
After which 1 μg/mL anti-CD3 antibody (UCHT1) and 0.1 μg/mL anti-CD28 antibody (CD28.2) were added to activate T cells. Supernatants from these cells were collected at 24 hours post-stimulation and the levels of IL-2 were determined by ELISA.

Nc1nc(NCCc2ccc(O)cc2)nc2nc(-c3ccco3)nn12 [ZM-241385]
increase of IL-2 levels (mouse splenocytes; GPR174-KO splenocytes, no NECA, ZM-241385 0.1 μM, FIG. 68B): 1.3 fold
increase of IL-2 levels (mouse splenocytes; WT splenocytes, NECA 0.1 μM, compounds 10, 6 0.3 μM, ZM-241385 0.2 μM, FIG. 69): 2 fold
increase of IL-2 levels (mouse splenocytes; WT splenocytes, no NECA, compound 10 1 μM, ZM-241385 0.1 μM, FIG. 68A): 1.3 fold
increase of IL-2 levels (human PBMC): 1.4 fold

adenosine 5′-(a,p-methylene)diphosphate sodium salt [APCP]
increase of IL-2 levels (human PBMC): 1.5 fold
